According to patent publication US20150342954A1, “2-BENZYL, 3-(PYRIMIDIN-2-YL) SUBSTITUTED PYRAZOLES USEFUL AS SGC STIMULATORS” (IRONWOOD PHARMACEUTICALS, INC., priority 2011, published 2015):
pEC50: −log10 of the molar value. Like-named read-outs stand apart in the source and are kept apart here.

What was measured:
[1] = molecular target: T1, Human soluble guanylate cyclase enzyme (hsGC) (Homo sapiens, UniProt Q02108+Q02153); experiment: Purified human sGC enzyme synergy assay in the presence of 1 μM sodium nitroprusside (SNP); format: biochemical; conditions: compound at 30 μM, presence of 1 μM SNP
T1 construct: purchased Enzo Inc. ALX-201-177
T1 sequence (Q02153 1-619): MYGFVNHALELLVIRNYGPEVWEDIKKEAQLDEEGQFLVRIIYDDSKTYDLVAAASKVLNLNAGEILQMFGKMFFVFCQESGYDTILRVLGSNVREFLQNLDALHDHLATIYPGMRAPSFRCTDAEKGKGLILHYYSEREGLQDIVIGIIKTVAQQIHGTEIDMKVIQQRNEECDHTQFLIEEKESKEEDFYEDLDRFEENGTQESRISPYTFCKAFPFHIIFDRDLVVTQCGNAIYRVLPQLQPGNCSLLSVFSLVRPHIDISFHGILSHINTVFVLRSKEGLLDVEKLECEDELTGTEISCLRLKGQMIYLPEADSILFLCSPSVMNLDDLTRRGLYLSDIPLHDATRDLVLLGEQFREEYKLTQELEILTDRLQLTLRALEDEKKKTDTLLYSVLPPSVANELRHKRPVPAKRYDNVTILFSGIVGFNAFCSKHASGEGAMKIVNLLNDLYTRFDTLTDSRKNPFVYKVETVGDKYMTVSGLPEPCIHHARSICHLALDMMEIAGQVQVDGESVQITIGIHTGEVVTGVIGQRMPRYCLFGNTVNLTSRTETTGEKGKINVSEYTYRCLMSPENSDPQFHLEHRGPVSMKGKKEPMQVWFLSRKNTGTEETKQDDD
T1 sequence (Q02108 1-690): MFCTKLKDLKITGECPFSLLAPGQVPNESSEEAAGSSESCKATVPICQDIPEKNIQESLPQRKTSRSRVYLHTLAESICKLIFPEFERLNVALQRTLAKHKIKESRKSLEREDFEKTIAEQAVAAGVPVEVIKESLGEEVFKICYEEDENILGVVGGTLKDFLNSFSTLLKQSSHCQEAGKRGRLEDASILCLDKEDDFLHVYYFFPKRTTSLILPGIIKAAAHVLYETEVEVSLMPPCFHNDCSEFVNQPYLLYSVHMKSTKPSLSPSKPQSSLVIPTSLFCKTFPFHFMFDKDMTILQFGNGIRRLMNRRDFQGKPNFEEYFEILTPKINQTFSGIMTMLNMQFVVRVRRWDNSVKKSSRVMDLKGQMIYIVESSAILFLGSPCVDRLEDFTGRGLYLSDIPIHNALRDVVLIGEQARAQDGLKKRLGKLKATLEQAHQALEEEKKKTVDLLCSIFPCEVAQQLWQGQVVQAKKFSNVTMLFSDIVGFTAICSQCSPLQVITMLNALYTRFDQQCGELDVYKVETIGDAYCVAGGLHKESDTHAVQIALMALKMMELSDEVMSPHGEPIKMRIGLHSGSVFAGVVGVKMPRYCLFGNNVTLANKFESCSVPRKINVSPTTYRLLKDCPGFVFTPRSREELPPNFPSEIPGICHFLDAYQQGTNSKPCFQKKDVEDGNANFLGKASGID
Summary of the method: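 Purified hsGC (5 ng) incubated 30 min at 37 °C with compound (10 or 30 μM final) in Tris pH 8.0, 300 μM GTP, 1 mM IBMX, 2 mM MgCl2, with or without 1 μM SNP; stopped with cold methanol. cGMP quantified against standard curve; specific activity expressed as fold-change over DMSO control.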

[2] = molecular target: T2, soluble guanylate cyclase (sGC) (Homo sapiens, UniProt Q02108+Q02153); experiment: sGC-HEK-cGMP assay (run with SNP incubation); format: cell-based; conditions: for Emax: 10 μM SNP, 100% = 30 μM BAY 41-2272 with 10 μM SNP, read-out: HEK assay Emax-unconstrained (Percent); for HEK MEC-10: concentration that would elicit 10% of the Emax in the presence of 10 μM SNP; for pEC50: in the presence of 10 μM SNP
T2 construct: endogenously expressing soluble guanylate cyclase (sGC); endogenous in cells; host or cells: HEK293
T2 sequence (Q02153 1-619): T1 sequence (Q02153 1-619)
T2 sequence (Q02108 1-690): T1 sequence (Q02108 1-690)
Summary of the method: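 HEK293 cells with endogenous sGC were pre-treated 15 min at 37 °C with 0.5 mM IBMX, then exposed to test compound plus sodium nitroprusside for 10 min at 37 °C. Cells were lysed in 0.1 M HCl (4 °C, 30 min), and cGMP was quantified by LC/MS against a standard curve. EC50 values came from concentration-response curves.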

[3] = molecular target: T1, Human soluble guanylate cyclase enzyme (hsGC); experiment: Purified human sGC enzyme activity assay (without SNP); format: biochemical; conditions: compound at 30 μM, absence of SNP, fold over DMSO control
Summary of the method: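 Purified human sGC (5 ng) in 0.1 M Tris pH 8.0, 2 mM DTT, 2 mM MgCl2, 300 μM GTP, 1 mM IBMX, with compound at 10 or 30 μM final, 30 min at 37° C.; methanol-stopped. cGMP quantified against a standard curve; specific activity expressed as fold-change over DMSO control.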

[4] = Table 3B, top of concentration-response curve not fitted to 100%
[5] = Table 3E, read-out: HEK assay EC50
[6] = top of concentration-response curve not fitted to 100%, Table 3E, read-out: HEK assay EC50-unconstrained
[7] = Table 3C, top of concentration-response curve not fitted to 100%
[8] = Table 3F, read-out: HEK assay EC50
[9] = top of concentration-response curve not fitted to 100%, Table 3F, read-out: HEK assay EC50-unconstrained

| Structure (SMILES) | Enzyme Activity (increase at 30 μM with SNP) ([1]; Table 5B) | Emax [2, 4] [%] | HEK MEC-10 ([2]; Table 3E) | pEC50 [2, 5] | pEC50 [2, 6] | Enzyme Activity (increase at 30 μM without SNP) ([3]; Table 5B) | Enzyme Activity (increase at 30 μM with SNP) ([1]; Table 5C) | Emax [2, 7] [%] | HEK MEC-10 ([2]; Table 3F) | pEC50 [2, 8] | pEC50 [2, 9] | Enzyme Activity (increase at 30 μM without SNP) ([3]; Table 5C) |
| --- | --- | --- | --- | --- | --- | --- | --- | --- | --- | --- | --- | --- |
| CC(=O)Nc1cnc(-c2cc(-c3ccon3)n(Cc3cccc(F)c3F)n2)nc1N [Compound 80] | E (20 to 30 fold increase) | 40 to 60 | C (0.1 to <1 μM) | 4.22 to 4.40 | 6.30 to 8.00 | D (10 or <20 fold increase) | – | – | – | – | – | – |
| O=c1ccnc(-c2cc(-c3ccon3)n(Cc3cccc(Cl)c3F)n2)[nH]1 [Compound 81] | D (10 or <20 fold increase) | 40 to 60 | C (0.1 to <1 μM) | 4.22 to 4.40 | 5.30 to 6.00 | C (5 to <10 fold increase) | – | – | – | – | – | – |
| Oc1ccnc(-c2cc(-c3ccon3)n(Cc3cccc(F)c3F)n2)n1 [Compound 84] | D (10 or <20 fold increase) | 60 to 80 | B (0.01 to <0.1 μM) | 4.00 to 4.22 | 5.30 to 6.00 | C (5 to <10 fold increase) | – | – | – | – | – | – |
| O=c1[nH]c(-c2cc(-c3ccon3)n(Cc3ccccc3F)n2)nc(F)c1C(F)(F)F [Compound 85, 6-fluoro-2-(1-(2-fluorobenzyl)-5-(isoxazol-3-yl)-1H-pyrazol-3-yl)-5-(trifluoromethyl)pyrimidin-4(3H)-one] | E (20 to 30 fold increase) | 40 to 60 | – | – | 6.30 to 8.00 | C (5 to <10 fold increase) | – | – | – | – | – | – |
| Cc1cccc(Cn2nc(-c3ncc(F)c(O)n3)cc2-c2ccon2)c1F [Compound 86] | D (10 or <20 fold increase) | 60 to 80 | – | – | 5.30 to 6.00 | C (5 to <10 fold increase) | – | – | – | – | – | – |
| Oc1nc(-c2cc(-c3ccoc3)n(Cc3ccccc3F)n2)ncc1F [Compound 87] | E (20 to 30 fold increase) | 40 to 60 | – | – | 6.30 to 8.00 | D (10 or <20 fold increase) | – | – | – | – | – | – |
| Nc1nc(-c2cc(-c3ccon3)n(Cc3cccc(F)c3F)n2)ncc1NC(=O)c1ccc(F)cc1 [Compound 88] | E (20 to 30 fold increase) | 80 to 100 | – | – | 5.30 to 6.00 | F (>30 fold increase) | – | – | – | – | – | – |
| CC1(C)C(=O)Nc2nc(-c3cc(-c4ccon4)n(Cc4ccccc4F)n3)nc(N)c21 [Compound 99, 4-amino-2-(1-(2-fluorobenzyl)-5-(isoxazol-3-yl)-1H-pyrazol-3-yl)-5,5-dimethyl-5H-pyrrolo[2,3-d]pyrimidin-6(7H)-one] | – | – | – | – | – | – | D (10 or <20 fold increase) | 40 to 60 | B (0.01 to <0.1 μM) | > 4.70 | 6.30 to 8.00 | D (10 or <20 fold increase) |
| CC1(C)C(=O)Nc2nc(-c3cc(-c4ccon4)n(Cc4ccccc4F)n3)ncc21 [Compound 100] | – | – | – | – | – | – | F (>30 fold increase) | 60 to 80 | C (0.1 to <1 μM) | > 4.70 | 6.00 to 6.30 | D (10 or <20 fold increase) |
| Cn1cnc2nc(-c3cc(-c4ccon4)n(Cc4ccccc4F)n3)ncc21 [Compound 109] | – | – | – | – | – | – | B (2 to <5 fold increase) | 40 to 60 | D (1 to <10 μM) | 4.22 to 4.40 | 4.30 to 5.00 | B (2 to <5 fold increase) |
| Fc1ccccc1Cn1nc(-c2ncc3[nH]cnc3n2)cc1-c1ccon1 [Compound 110] | – | – | – | – | – | – | D (10 or <20 fold increase) | 80 to 100 | C (0.1 to <1 μM) | > 4.70 | 5.30 to 6.00 | D (10 or <20 fold increase) |
| Cn1[nH]c2nc(-c3cc(-c4ccon4)n(Cc4ccccc4F)n3)ncc2c1=O [Compound 112] | – | – | – | – | – | – | B (2 to <5 fold increase) | 60 to 80 | E (10 to 50 μM) | 4.00 to 4.22 | 4.30 to 5.00 | A (no increase to <2 fold increase) |
| Fc1ccccc1Cn1nc(-c2ncc3cn[nH]c3n2)cc1-c1ccon1 [Compound 113] | – | – | – | – | – | – | D (10 or <20 fold increase) | 20 to 40 | C (0.1 to <1 μM) | 4.40 to 4.70 | 6.30 to 8.00 | C (5 to <10 fold increase) |
| CC(=O)Nc1n[nH]c2nc(-c3cc(-c4ccon4)n(Cc4ccccc4F)n3)ncc12 [Compound 114] | – | – | – | – | – | – | E (20 to 30 fold increase) | 60 to 80 | A (0.001 to <0.01 μM) | > 4.70 | 6.30 to 8.00 | D (10 or <20 fold increase) |
| NC1=NNC2NC(c3cc(-c4ccon4)n(Cc4ccccc4F)n3)=NC=C12 (stereo not shown) [Compound 118] | – | – | – | – | – | – | E (20 to 30 fold increase) | 80 to 100 | B (0.01 to <0.1 μM) | > 4.70 | 6.00 to 6.30 | C (5 to <10 fold increase) |
